In the assay the test system is C3H/He mice, Gardner lymphosarcoma 6C3HED ip, survival T/C. Briefly: NCI In Vivo Anticancer Drug Screen. Data for tumor model Lymphosarcoma Gardner 6C3HED (intraperitoneal) in C3H/He mice. Particulars: higher = longer survival. The procedure: The antitumor activity of compounds was measured in mice bearing transplantable tumors. Survival or tumor size were measured and the results are expressed as the measurement made in the treated group (T) divided by the measurement made in the vehicle treated control group (C). The tumor model used in this assay is Lymphosarcoma Gardner 6C3HED (intraperitoneal) in C3H/He mice

Where [1] appears, read: endpoint: survival time, mean or median, dose: 2.5 mg/kg/injection, schedule: Q01DX010 (ip), vehicle: saline.
Where [2] appears, read: endpoint: survival time, mean or median, dose: 5.0 mg/kg/injection, schedule: Q01DX010 (ip), vehicle: saline.
The mark [3] stands for this setting: endpoint: survival time, mean or median, dose: 10.0 mg/kg/injection, schedule: Q01DX010 (ip), vehicle: saline.
[4] abbreviates: endpoint: survival time, mean or median, dose: 125.0 mg/kg/injection, schedule: Q01DX010 (ip), vehicle: saline.
[5] abbreviates: endpoint: survival time, mean or median, dose: 250.0 mg/kg/injection, schedule: Q01DX010 (ip), vehicle: saline.
Setting [6] is: endpoint: survival time, mean or median, dose: 25.0 mg/kg/injection, schedule: Q01DX010 (ip), vehicle: saline.
[7] abbreviates: endpoint: survival time, mean or median, dose: 50.0 mg/kg/injection, schedule: Q01DX010 (ip), vehicle: saline.
The mark [8] stands for this setting: endpoint: survival time, mean or median, dose: 100.0 mg/kg/injection, schedule: Q01DX010 (ip), vehicle: saline.
The mark [9] stands for this setting: endpoint: survival time, mean or median, dose: 200.0 mg/kg/injection, schedule: Q01DX010 (ip), vehicle: saline.
Where [10] appears, read: endpoint: survival time, mean or median, dose: 20.0 mg/kg/injection, schedule: Q01DX010 (ip), vehicle: saline.
Setting [11] is: endpoint: survival time, mean or median, dose: 40.0 mg/kg/injection, schedule: Q01DX010 (ip), vehicle: saline.
Where [12] appears, read: endpoint: survival time, mean or median, dose: 4.0 mg/kg/injection, schedule: Q01DX010 (ip), vehicle: saline.
Setting [13] is: endpoint: survival time, mean or median, dose: 12.5 mg/kg/injection, schedule: Q01DX010 (ip), vehicle: saline.

Where “and” joins values, the source holds several entries; their conditions need not be identical. Equal values may be shown once. Inconclusive results and toxic doses are left out.

With `CC[n+]1c(-c2ccccc2)c2cc(N)ccc2c2ccc(N)cc21`, the T/C by setting is: (endpoint: survival time, mean or median, dose: 1.25 mg/kg/injection, schedule: Q01DX010 (ip), vehicle: saline) 117 % of control; under setting [1], 121 % of control; under setting [2], 117 % of control; under setting [3], 121 % of control.

For the compound `c1ccc(CCSc2ncnc3nc[nH]c23)cc1`, the T/C is, setting by setting: (endpoint: survival time, mean or median, dose: 62.5 mg/kg/injection, schedule: Q01DX010 (ip), vehicle: saline) 96 % of control; under setting [4], 96 % of control and 100 % of control; under setting [5], 93 % of control and 96 % of control; (endpoint: survival time, mean or median, dose: 500.0 mg/kg/injection, schedule: Q01DX010 (ip), vehicle: saline) 93 % of control and 96 % of control.

In the case of `[N-]=[N+]=CC(=O)CCC(N)C(=O)O` (stereo not drawn), the T/C reads like this: (endpoint: survival time, mean or median, dose: 0.03 mg/kg/injection, schedule: Q01DX010 (ip), vehicle: saline) 100 % of control and 105 % of control; (endpoint: survival time, mean or median, dose: 0.05 mg/kg/injection, schedule: Q01DX010 (ip), vehicle: saline) 100 % of control and 118 % of control; (endpoint: survival time, mean or median, dose: 0.1 mg/kg/injection, schedule: Q01DX010 (ip), vehicle: saline) 118 % of control and 120 % of control.

Regarding `CC(N)(CC(=O)O)C(=O)O` (stereo not drawn), the T/C runs as follows: (endpoint: median survival time, dose: 3.12 mg/kg/injection, schedule: Q01DX009 (ip), vehicle: saline) 90 % of control and 98 % of control; (endpoint: median survival time, dose: 6.25 mg/kg/injection, schedule: Q01DX009 (ip), vehicle: saline) 96 % of control; (endpoint: median survival time, dose: 12.5 mg/kg/injection, schedule: Q01DX009 (ip), vehicle: saline) 92 % of control and 99 % of control; (endpoint: median survival time, dose: 25.0 mg/kg/injection, schedule: Q01DX009 (ip), vehicle: saline) 86 % of control; (endpoint: median survival time, dose: 50.0 mg/kg/injection, schedule: Q01DX009 (ip), vehicle: saline) 101 % of control.

For `CCC1=C(c2ccc(OC)cc2)CCC(C(=O)O)C1C` (stereo not drawn), the T/C is 96 % of control (endpoint: survival time, mean or median, dose: 12.5 mg/kg/injection, schedule: Q01DX010 (sc), vehicle: steriod suspending solution); 107 % of control (endpoint: survival time, mean or median, dose: 25.0 mg/kg/injection, schedule: Q01DX010 (sc), vehicle: steriod suspending solution); 92 % of control (endpoint: survival time, mean or median, dose: 50.0 mg/kg/injection, schedule: Q01DX010 (sc), vehicle: steriod suspending solution); 100 % of control (endpoint: survival time, mean or median, dose: 100.0 mg/kg/injection, schedule: Q01DX010 (sc), vehicle: steriod suspending solution).

With `CS(=O)(=O)OCC(O)C(O)C(O)C(O)COS(C)(=O)=O` (stereo not drawn), the T/C is 94 % of control under setting [6]; 100 % of control under setting [7]; 94 % of control and 100 % of control under setting [8]; 100 % of control and 105 % of control under setting [9]; 110 % of control (endpoint: survival time, mean or median, dose: 400.0 mg/kg/injection, schedule: Q01DX010 (ip), vehicle: saline).

As for `Nc1nc([Se])c2ncn(C3OC(CO)C(O)C3O)c2n1` (stereo not drawn), the T/C is, setting by setting: (endpoint: median survival time, dose: 1.0 mg/kg/injection, schedule: Q01DX009 (ip), vehicle: saline) 98 % of control; (endpoint: median survival time, dose: 2.0 mg/kg/injection, schedule: Q01DX009 (ip), vehicle: saline) 103 % of control; (endpoint: median survival time, dose: 4.0 mg/kg/injection, schedule: Q01DX009 (ip), vehicle: saline) 114 % of control; (endpoint: median survival time, dose: 8.0 mg/kg/injection, schedule: Q01DX009 (ip), vehicle: saline) 107 % of control; (endpoint: median survival time, dose: 16.0 mg/kg/injection, schedule: Q01DX009 (ip), vehicle: saline) 99 % of control.

Regarding `CCN(CC)CCCC(C)Nc1c2ccc(Cl)cc2nc2ccc(OC)cc12` (stereo not drawn), the T/C was 90 % of control (endpoint: survival time, mean or median, dose: 3.13 mg/kg/injection, schedule: Q01DX010 (ip), vehicle: saline); 90 % of control (endpoint: survival time, mean or median, dose: 6.25 mg/kg/injection, schedule: Q01DX010 (ip), vehicle: saline); 100 % of control under setting [6]; 112 % of control under setting [7].

Consider `N=C(N)SCc1c2ccccc2c(CSC(=N)N)c2ccccc12`, for which the T/C under setting [1] is 300 % of control; the T/C under setting [2] was 300 % of control; the T/C under setting [3] was 300 % of control; the T/C under setting [10] was 300 % of control; the T/C under setting [11] was 192 % of control.

With `CN1CC[C@]23c4c5ccc(O)c4O[C@H]2C(=O)CC[C@H]3[C@H]1C5`, the T/C runs as follows: under setting [12], 103 % of control; (endpoint: survival time, mean or median, dose: 8.0 mg/kg/injection, schedule: Q01DX010 (ip), vehicle: saline) 100 % of control; (endpoint: survival time, mean or median, dose: 16.0 mg/kg/injection, schedule: Q01DX010 (ip), vehicle: saline) 103 % of control; (endpoint: survival time, mean or median, dose: 32.0 mg/kg/injection, schedule: Q01DX010 (ip), vehicle: saline) 90 % of control and 100 % of control.

`Nc1nc(N)c2nc(CNc3ccc(C(=O)NC(CCC(=O)O)C(=O)O)cc3)cnc2n1` (stereo not drawn): the T/C by setting is: (endpoint: survival time, mean or median, dose: 0.03 mg/kg/injection, schedule: Q01DX010 (ip), vehicle: other) 95 % of control and 100 % of control; (endpoint: survival time, mean or median, dose: 0.05 mg/kg/injection, schedule: Q01DX010 (ip), vehicle: other) 100 % of control and 110 % of control; (endpoint: survival time, mean or median, dose: 0.1 mg/kg/injection, schedule: Q01DX010 (ip), vehicle: other) 100 % of control and 110 % of control.

As to `Nc1ncnc2c1ncn2C1OC(COP(=O)(O)O)C(O)C1O` (stereo not drawn), the T/C runs as follows: (endpoint: median survival time, dose: 18.3 mg/kg/injection, schedule: Q01DX003 (ip), vehicle: saline) 100 % of control; (endpoint: median survival time, dose: 18.3 mg/kg/injection, schedule: Q12HX006 (ip), vehicle: saline) 109 % of control; (endpoint: median survival time, dose: 36.6 mg/kg/injection, schedule: Q01DX003 (ip), vehicle: saline) 95 % of control; (endpoint: median survival time, dose: 36.6 mg/kg/injection, schedule: Q12HX006 (ip), vehicle: saline) 111 % of control; (endpoint: median survival time, dose: 73.2 mg/kg/injection, schedule: Q01DX003 (ip), vehicle: saline) 90 % of control; (endpoint: median survival time, dose: 73.3 mg/kg/injection, schedule: Q12HX006 (ip), vehicle: saline) 104 % of control.

On to `CN(C)/N=N/c1nc[nH]c1C(N)=O`, for which the T/C runs as follows: under setting [6], 300 % of control; under setting [7], 300 % of control and 311 % of control; under setting [8], 266 % of control and 300 % of control; under setting [9], 118 % of control and 296 % of control.

For the compound `CO[C@@H]1[C@@H](OC2OC(C)C(OC3CC(C)(O)C(OC(=O)CC(C)C)C(C)O3)C(N(C)C)C2O)[C@@H](CC=O)C[C@@H](C)C(=O)/C=C/C2O[C@H]2C[C@@H](C)OC(=O)C[C@H]1OC(C)=O` (stereo partly drawn), the T/C is, setting by setting: (endpoint: survival time, mean or median, dose: 18.8 mg/kg/injection, schedule: Q01DX010 (ip), vehicle: saline) 94 % of control; (endpoint: survival time, mean or median, dose: 37.5 mg/kg/injection, schedule: Q01DX010 (ip), vehicle: saline) 102 % of control.

On to `Cc1n[nH]c(=O)[nH]c1=O`, for which the T/C reads like this: under setting [4], 106 % of control; under setting [5], 90 % of control; (endpoint: survival time, mean or median, dose: 1000.0 mg/kg/injection, schedule: Q01DX010 (ip), vehicle: saline) 90 % of control.

On to `COC1C(OC(=O)/C=C/C=C/C=C/C=C/C(=O)O)CCC2(CO2)C1C1(C)OC1CC=C(C)C` (stereo not drawn), for which the T/C under setting [13] was 102 % of control, the T/C under setting [6] is 110 % of control, the T/C under setting [7] is 110 % of control and the T/C under setting [8] is 100 % of control.

In the case of `Cc1cc2nc3c(=O)[nH]c(=O)nc-3n(CC(O)C(O)C(O)C(O)CO)c2cc1C` (stereo not drawn), the T/C under setting [13] was 97 % of control; the T/C under setting [7] is 100 % of control; the T/C under setting [8] is 87 % of control and 100 % of control.

`N[C@@H](Cc1ccc(N(CCCl)CCCl)cc1)C(=O)O`: the T/C was 106 % of control (endpoint: survival time, mean or median, dose: 0.5 mg/kg/injection, schedule: Q01DX010 (ip), vehicle: saline); 150 % of control (endpoint: survival time, mean or median, dose: 2.0 mg/kg/injection, schedule: Q01DX010 (ip), vehicle: saline); 93 % of control under setting [12].

`C[C@@H]1C[C@H]2CC[C@H](O2)[C@H](C)C(=O)O[C@@H](C)C[C@@H]2CC[C@@H](O2)[C@@H](C)C(=O)O[C@H](C)C[C@H]2CC[C@H](O2)[C@H](C)C(=O)O[C@@H](C)C[C@@H]2CC[C@@H](O2)[C@@H](C)C(=O)O1`: the T/C runs as follows: under setting [13], 100 % of control; under setting [6], 92 % of control; under setting [7], 96 % of control.

Consider `O=c1[nH]c(=O)n(C2CC(O)C(CO)O2)cc1F` (stereo not drawn), for which the T/C by setting is: under setting [2], 115 % of control and 303 % of control; under setting [3], 100 % of control and 115 % of control; under setting [10], 107 % of control and 229 % of control; under setting [11], 115 % of control and 212 % of control.

Turning to `COc1cc(-c2ccc(Nc3ccccc3C(=O)O)c(OC)c2)ccc1N`, the T/C under setting [2] was 110 % of control; the T/C under setting [3] is 96 % of control and 107 % of control; the T/C under setting [10] is 92 % of control; the T/C under setting [11] is 89 % of control and 96 % of control; the T/C (endpoint: survival time, mean or median, dose: 80.0 mg/kg/injection, schedule: Q01DX010 (ip), vehicle: saline) is 89 % of control.

Source of the values: PubChem BioAssay AID230 (DTP/NCI, 2004).
